Measured values as given in US20230364101A1, “DICLOFENAC PRODRUG AND USE OF THE SAME” (Pumont Biotech Co., Ltd., priority 2022, published 2023).
≈ marks a conversion by molar mass, not a printed value.

Key:
[1] = Solubility test using potassium phosphate buffer at pH 7.4; type: physicochemical; settings: 5 mg prodrug in 10 mL potassium phosphate buffer pH 7.4, 37° C., HPLC-UV 254 nm; for solubility at 24 h: potassium phosphate buffer, 37 °C, pH 7.4, aqueous buffer, thermodynamic from solid, read-out: Solubility after 24 hours
Protocol: First, a respective one of the diclofenac prodrugs of EX5 to EX8 and EX12 was mixed with a potassium phosphate buffer (including 50 mM potassium phosphate, sodium chloride, and water; pH 7.4) and then placed in a constant temperature oscillator at 37° C. for 24 hours so as to dissolve the diclofenac prodrug, thereby obtaining a test sample. After that, the test sample was filtered through a filter having a pore size of 0.22 μm to obtain a filtrate. Next, the filtrate was mixed with acetonitrile in equal amounts, and then subjected to oscillation and centrifugation performed in sequence. The resultant supernatant fraction was subjected to HPLC with UV detection under a wavelength of 254 nm.

[2] = Determination of particle size (D90) after grinding; type: physicochemical; settings: after grinding with mortar and homogenizer in 0.125 wt % Tween 20; initial particle size about 60 μm
Excerpt: The solid particles of the diclofenac prodrugs of EX5 and EX8 were subjected to grinding in order to be formulated into a soluble liquid suspension suitable for intraarticular injection. In general, first, the solid particles of diclofenac prodrugs and deionized water were mixed to form a liquid suspension. Next, the liquid suspension was ground using a homogenizer and then subjected to oscillation treatment to obtain a test sample. Then, the test sample was subjected to determination of particle size distribution. Afterwards, the test sample includes solid particles having a size ranging from 20 μm to 30 μm was centrifuged and lyophilized, followed by determination of purity using HLPC. […]
(§1) To be specific, 100 mg of the diclofenac prodrug of EX5 having an initial particle size of about 60 μm was manually ground using a mortar, and then mixed with 2.0 mL of an aqueous solution containing 0.125 wt % of Tween 20 and deionized water, so as to obtain a slurry. […] The thus determined average particle size D90 of the diclofenac prodrug of EX5 was 8.4 μm.
as §1, with “Meanwhile, 102” for “To be specific, 100”, “EX8” for “EX5”, “saline,” for “deionized water,”, “18.2” for “8.4”

With `O=C(Cc1ccccc1Nc1c(Cl)cccc1Cl)OCOC(=O)OCCCO` [EX8, (((3-hydroxypropoxy)carbonyl)oxy)methyl 2-(2-((2,6-dichlorophenyl)amino)phenyl)acetate] the solubility at 24 h [1] was 28.4 µg/mL (≈ 66.4 µM) and the “average particle size D90” value [2] was 18.2 μm.
Molecule `O=C(Cc1ccccc1Nc1c(Cl)cccc1Cl)OCOC(=O)OCC(O)CO` (stereo not shown) [EX7, (((2,3-dihydroxypropoxy)carbonyl)oxy)methyl 2-(2-((2,6-dichlorophenyl)amino)phenyl)acetate] has a solubility at 24 h [1] of 269 µg/mL (≈ 604 µM).
Work on `CC1(C)OCC(COC(=O)OCOC(=O)Cc2ccccc2Nc2c(Cl)cccc2Cl)O1` (stereo not shown) [EX6, ((((2,2-dimethyl-1,3-dioxolan-4-yl)methoxy)carbonyl)oxy)methyl 2-(2-((2,6-dichlorophenyl)amino)phenyl)acetate] yielded a solubility at 24 h [1] of 0.33 µg/mL (≈ 0.681 µM).
For `O=C(Cc1ccccc1Nc1c(Cl)cccc1Cl)OCOC(=O)N1CCOCC1` [EX5, (2-(2-((2,6-dichlorophenyl)amino)phenyl)acetoxy)methyl morpholine-4-carboxylate], the “Solubility after 24 hours” value ([1]; listed as EX5 (crystalline)) was 0.06 µg/mL (≈ 0.137 µM) and the “average particle size D90” value [2] was 8.4 μm.
For `O=C(Cc1ccccc1Nc1c(Cl)cccc1Cl)OCOC(=O)N1CCOCC1` [EX5 (amorphous), (2-(2-((2,6-dichlorophenyl)amino)phenyl)acetoxy)methyl morpholine-4-carboxylate], the “Solubility after 24 hours” value [1] was 4.24 µg/mL (≈ 9.65 µM).
